Tests used:
Assay type in all cases: in vivo
[1] = test system: Avena fatua (AVEFA); assay: Post-emergence herbicidal glasshouse test, Avena fatua; details: Avena fatua, 312 h, rate 250 g/ha, evaluated after 13 days, scale 100 = total damage to plant, 0 = no damage
Experimental: (§1) Seeds of a variety of test species were sown in standard soil in pots. After cultivation for one day (pre-emergence) or after 8 days cultivation (post-emergence) under controlled conditions in a glasshouse (at 24/16° C., day/night; 14 hours light; 65% humidity), the plants were sprayed with an aqueous spray solution derived from the formulation of the technical active ingredient in acetone/water (50:50) solution containing 0.5% Tween 20 (polyoxyethelyene sorbitan monolaurate, CAS RN 9005-64-5). The test plants were then grown in a glasshouse under controlled conditions in a glasshouse (at 24/16° C., day/night; 14 hours light; 65% humidity) and watered twice daily. After 13 days for pre and post-emergence, the test was evaluated ([…] to plant; 0=no damage to plant).
(§2) Setaria faberi (SETFA), Lolium perenne (LOLPE), Alopecurus myosuroides (ALOMY), Echinochloa crus-galli (ECHCG) and Avena fatua (AVEFA).

[2] = test system: Echinochloa crus-galli (ECHCG); assay: Pre-emergence herbicidal glasshouse test, Echinochloa crus-galli; details: Echinochloa crus-galli, 312 h, rate 250 g/ha, evaluated after 13 days, scale 100 = total damage to plant, 0 = no damage
Experimental: as §1, §2

[3] = test system: Alopecurus myosuroides (ALOMY); assay: Post-emergence herbicidal glasshouse test, Alopecurus myosuroides; details: Alopecurus myosuroides, 312 h, rate 250 g/ha, evaluated after 13 days, scale 100 = total damage to plant, 0 = no damage
Experimental: as §1, §2

[4] = test system: Alopecurus myosuroides (ALOMY); assay: Pre-emergence herbicidal glasshouse test, Alopecurus myosuroides; details: Alopecurus myosuroides, 312 h, rate 250 g/ha, evaluated after 13 days, scale 100 = total damage to plant, 0 = no damage
Experimental: as §1, §2

[5] = test system: Avena fatua (AVEFA); assay: Pre-emergence herbicidal glasshouse test, Avena fatua; details: Avena fatua, 312 h, rate 250 g/ha, evaluated after 13 days, scale 100 = total damage to plant, 0 = no damage
Experimental: as §1, §2

[6] = test system: Echinochloa crus-galli (ECHCG); assay: Post-emergence herbicidal glasshouse test, Echinochloa crus-galli; details: Echinochloa crus-galli, 312 h, rate 250 g/ha, evaluated after 13 days, scale 100 = total damage to plant, 0 = no damage
Experimental: as §1, §2

[7] = test system: Lolium perenne (LOLPE); assay: Post-emergence herbicidal glasshouse test, Lolium perenne; details: 312 h, rate 250 g/ha, evaluated after 13 days, scale 100 = total damage to plant, 0 = no damage
Experimental: as §1, §2

[8] = test system: Lolium perenne (LOLPE); assay: Pre-emergence herbicidal glasshouse test, Lolium perenne; details: 312 h, rate 250 g/ha, evaluated after 13 days, scale 100 = total damage to plant, 0 = no damage
Experimental: as §1, §2

SMILES | pest or weed control at 250 g/ha [1] | pest or weed control at 250 g/ha [2] | pest or weed control at 250 g/ha [3] | pest or weed control at 250 g/ha [4] | pest or weed control at 250 g/ha [5] | pest or weed control at 250 g/ha [6] | pest or weed control at 250 g/ha [7] | pest or weed control at 250 g/ha [8]
CCc1cc(-c2cc(Cl)cc(Cl)c2)ccc1C1=C(O)C(C)(C)OC(C)(C)C1=O [Compound A-99] | 90% | 30% | 90% | 10% | 0% | 100% | 90% | 60%
CC1(C)OC(C)(C)C(O)=C(c2ccc(-c3ccc(F)cc3)cc2Cl)C1=O [Compound A-134] | 20% | 80% | 70% | 40% | 0% | 100% | 50% | 30%
Cc1cc(-c2ccc(F)cc2)cc(C)c1C1=C(O)[C@@]2(C)CC[C@H](O2)C1=O [Compound A-55] | 90% | 100% | 100% | 70% | 70% | 100% | 100% | 90%
CCc1cc(-c2ccc(C)c(F)c2)ccc1C1=C(O)C(C)(C)OC(C)(C)C1=O [Compound A-72] | 0% | 0% | 0% | 0% | 0% | 80% | 70% | 0%
CCc1cc(-c2ccc(F)cc2)ccc1C1=C(O)C(C)(CC)OC(C)(C)C1=O (centres unmarked) [Compound A-102] | 80% | 30% | 100% | 60% | 10% | 90% | 90% | 70%
CCc1cc(-c2cc(F)c(F)c(F)c2)ccc1C1=C(O)C(C)(C)C(=O)C(C)(C)C1=O [Compound C-5] | 90% | 0% | 100% | 30% | 20% | 100% | 70% | 40%
Cc1cc(-c2cc(Cl)cc(Cl)c2)cc(C)c1C1=C(O)[C@@]2(C)CC[C@H](O2)C1=O [Compound A-54] | 30% | 0% | 40% | 0% | 0% | 80% | 40% | 0%
CCc1cc(-c2cc(F)cc(Cl)c2)ccc1C1=C(O)C(C)(C)OC(C)(C)C1=O [Compound A-60] | 70% | 0% | 60% | 0% | 0% | 90% | 70% | 0%
CCc1cc(-c2ccc(C(F)(F)F)cc2)ccc1C1=C(O)C(C)(C)OC(C)(C)C1=O [Compound A-70] | 0% | 0% | 40% | 0% | 0% | 80% | 50% | 0%
CCc1cc(-c2ccc(Cl)c(F)c2F)ccc1C1=C(O)C(C)(C)OC(C)(C)C1=O [Compound A-47] | 70% | 30% | 90% | 0% | 40% | 100% | 60% | 50%
CCc1cc(-c2ccc(F)c(OC)c2)ccc1C1=C(O)C(C)(CC)OC(C)(C)C1=O (centres unmarked) [Compound A-118] | 80% | 40% | 60% | 20% | 0% | 90% | 80% | 90%
CCc1cc(-c2ccc(F)c(F)c2)ccc1C1=C(O)C(C)(C)[S+]([O-])C(C)(C)C1=O (centres unmarked) [Compound B-11] | 70% | 0% | 60% | 50% | 20% | 40% | 60% | 40%
CCc1cc(-c2ccc(F)c(F)c2F)ccc1C1=C(O)C(C)(CC)OC(C)(CC)C1=O (centres unmarked) [Compound A-133] | 20% | 0% | 60% | 30% | 0% | 60% | 50% | 30%
CCc1cc(-c2ccc(F)c(F)c2F)ccc1C1=C(O)C(C)(C)C(=O)C(C)(C)C1=O [Compound C-8] | 10% | 30% | 60% | 10% | 0% | 60% | 60% | 30%
CCc1cc(-c2ccc(Cl)cc2Cl)ccc1C1=C(O)[C@@]2(C)CC[C@H](O2)C1=O [Compound A-13] | 80% | 50% | 70% | 0% | 0% | 100% | 100% | 20%
CCc1cc(-c2ccc(F)c(F)c2F)ccc1C1=C(O)C(C)(C)OC(C)(C)C1=O [Compound A-87] | 90% | 0% | 70% | 0% | 0% | 100% | 90% | 0%
CCc1cc(-c2ccc(F)c(F)c2)ccc1C1=C(O)C2(CCCC2)OC(C)(C)C1=O [Compound A-125] | 10% | 0% | 50% | 0% | 0% | 70% | 30% | 0%
CCc1cc(-c2cc(F)c(F)cc2F)ccc1C1=C(O)C(C)(C)OC(C)(C)C1=O [Compound A-86] | 70% | 0% | 80% | 0% | 0% | 100% | 90% | 0%
CCc1cc(-c2ccc(F)cc2)ccc1C1=C(OC(C)=O)C(C)(C)OC(C)(C)C1=O [Compound D-3] | 80% | 100% | 100% | 90% | 70% | 100% | 100% | 100%
CCc1cc(-c2ccc(F)c(F)c2F)ccc1C1=C(O)C(C)(COC)OC(C)(C)C1=O (centres unmarked) [Compound A-117] | 80% | 90% | 90% | 70% | 40% | 100% | 80% | 60%
CCc1cc(-c2ccc(Cl)c(F)c2Cl)ccc1C1=C(O)C(C)(C)OC(C)(C)C1=O [Compound A-46] | 0% | 30% | 50% | 0% | 0% | 80% | 40% | 40%
CCc1cc(-c2cccc(Cl)c2)ccc1C1=C(O)C(C)(C)OC(C)(C)C1=O [Compound A-95] | 50% | 30% | 80% | 10% | 0% | 80% | 80% | 30%

Reference: patent US8895761B2, “4-phenylpyrane-3,5-diones, 4-phenylthiopyrane-3,5-diones and 2-phenylcyclohexane-1,3,5-triones as herbicides” (Syngenta Limited, priority 2007, dated 2014)
